Columns and labels:
[1] = system: αSMA; test: Phenotypic assay: high content aSMA staining in NHLF cells; format: cell-based, Human; details: for IC50: Homo sapiens, SMA, 72 h, read-out: aSMA pIC50 (converted)
Procedure: NHLF cells (Lonza #CC2512) were seeded as 2000 cells/well in 384-well plates in MEM medium w/o serine and glycine (Sigma #M2279)+1% pen/strep+5 mM L-glutamine +10% FBS and incubated overnight at 37° C., 5% CO2.
The next day, cells were washed with PBS and starvation MEM medium w/o serine and glycine (0% FBS) was added and cells were incubated overnight at 37° C., 5% CO2. The day after, cells were pre-incubated with compounds or vehicle (0.3% DMSO) for 1 h. Compounds were tested at 9 consecutive 3-fold dilutions starting from 30 μM. Each compound was tested in duplicate. Cells were further incubated for 72 h at 37° C., 5% CO2, 95% humidity. After 72 h of incubation, αSMA expression was quantified using immunostaining: • Fixation in 4% paraformaldehyde, • Blocking with 3% BSA, 2% FBS, 0.2% Triton-X in PBS, • Primary ab. anti-αSMA (AbCam #ab7817) diluted 500× in blocking buffer • Anti-mouse secondary ab. AF488 (ThermoFisher #A11029) • % of αSMA positive cells was determined by High Content Imaging (Molecular Device), data analysis was performed using MetaXpress software (Molecular Devices) and % of αSMA positive was further used to calculate % of inhibition for tested compounds. Total cell number was determined by Hoechst staining and % of viability over TGFβ stimulated controls was calculated.

[2] = Plasma and brain exposure after the last dose in bleomycin model (Comparative Example 7); format: in vivo, mice; details: after the last oral dose; 0.5 h, 2 h and 7 h
Procedure: Plasma and tissue exposures of NCT-503 were determined as described in Example 2. The plasma and brain concentrations of NCT-503 were determined by a liquid chromatography-tandem mass spectrometry (LC/MS/MS) assay. Plasma or tissue homogenate samples (tissues were homogenized with a water/acetonitrile 50/50 mixture) were extracted with 3 volumes of acetonitrile. Supernanatant was injected into HPLC system (Agilent 1260 Quaternary Pump equipped with an Agilent 1200 High Performance Autosampler SL; Agilent), using a Kinetex EVO C18 analytical column (100 A, 50×2.1 mm, 2.6 μm; Phenomenex). The mobile phases consisted of 0.1% formic acid in water (solvent A) and 0.1% formic acid in acetonitrile (solvent B); chromatographic separation was performed with gradient elution method (0.0-0.5 min, 5% B; 0.5-4.0 min, gradient to 90% B; 4.0-5.5 min, 90% B; 5.5-7.0 min, gradient to 5% B; 7.0-11.0 min, 5% B—flow rate: 0.3 mL/min).
Mass spectrometric analysis was performed on a linear ion trap triple quadrupole mass spectrometer (4000 Q TRAP; AB SCIEX) equipped with a turbo spray ion source; mass spectrometer was operated in positive ion mode and quantification was achieved by multiple reaction monitoring (MRM) mode. Peak integration was performed using Analyst (version 1.6.2.). […]
Plasma and brain exposure of NCT-503 was determined following the last oral dose at three timepoints (0.5 h, 2 h and 7 h).

[3] = system: bleomycin-induced pulmonary fibrosis; details: treated mice 7 days after intratracheal instillation of bleomycin; cited from earlier work
[4] = system: alpha smooth muscle actin (α-SMA); test: TGF-b induced α-SMA expression in NHLFs (Western blot); format: cell-based, Human; details: 50 uM; NHLF, TGF-β (10 ng/ml) 48 h
From the text: The antifibrotic activity of compounds of the present invention has been monitored measuring the expression of fibrotic mediators, collagen I (Col-I) and alpha smooth muscle actin (α-SMA) after treatment in lung cells with TGF-β in comparison with Nintedanib (see Frank Hilberg et al, Cancer Res 2008 Jun. 15; 68(12):4774-82), and allosteric inhibitor NCT-503 (see Hamanaka et al., Am J Respir Cell Mol Biol. 2018 May; 58(5):585-593).
Human normal lung fibroblasts (NHLFs) were purchased from Lonza (Basel, Switzerland). NHFLs were cultured in Eagle's Minimum Essential medium (EMEM) w/o serine and glycine, supplemented with 10% Fetal Bovine Serum (FBS), antibiotics (50 U/ml penicillin and 0.05 mg/ml streptomycin) and 2 mM L-glutamine, in an atmosphere of 95% air and 5% CO2 at 37° C. NHLFs cultures were used between passage 1 and 9. Before all the experiments, cells were incubated overnight in serum-free medium.
NHLFs were seeded in 12-well plates at cultured until 70% of confluency. To examine the expression of fibrotic markers, cells were treated with different concentrations of Compounds and NCT-503 in EMEM medium for 1 h followed by stimulation with TGF-β for 48 h at 37° C., 5% CO2. Following cell treatments, medium was removed and whole cell extracts were prepared by directly adding to the well the 1× loading buffer (125 mM Tris-HCl pH 6.8, 4% SDS, 0.2% Orange G, 50% glycerol, 2.5% β-mercaptoethanol, Li-cor Biosciences), boiled for 5 min and then electrophoresed on Mini protean TGX gel 4-12% (Biorad). After electrophoresis, proteins were transferred to a nitrocellulose membrane. Immunodetection of Col-I, α-SMA and glyceraldeide 3-phosphate dehydrogenase (GAPDH) were obtained by using mouse anti-CollA1 (Santacruz), mouse anti-α-SMA (sigma) and rabbit anti-GAPDH (Cell Signaling Technology) all diluted at 1:1000 in TBS-tween 0.1%. […] Detection and quantification were performed with Odyssey imaging system (Li-cor) using GAPDH as loading control.

[5] = system: bleomycin-induced pulmonary fibrosis; test: Bleomycin-induced pulmonary fibrosis in male mice (Comparative Example 7); format: in vivo; details: for lung/body weight: NCT-503 100 mg/kg/day, Nintedanib esylate 60 mg/Kg/day
Procedure: The allosteric inhibitor NCT-503 has accordingly been assessed in the same murine model of Compound 19. Comparative Example 7 was carried out under the same experimental conditions of Example 5.
The treatment was stopped at day 10, after 4 days of treatment with NCT-503 600 mg/kg/day. After two days wash-out, the treatment re-started with a once daily regimen at the final dose of […].
The final dose was of 100 mg/kg/day.

[6] = system: bleomycin-induced pulmonary fibrosis; test: Bleomycin-induced pulmonary fibrosis in male mice (Example 5)
Procedure: Male C57BL6/J mice (7-8 weeks old) were purchased from the Envigo RMS (San Pietro al Natisone (UD), Italy). All mice were maintained under pathogen-free conditions and were provided food and water ad libitum.
Lung injury was induced by double oropharyngeal instillation of Bleomycin hydrochloride (BLM, BAXTER) at day 0 and day 4 at the doses of 0.02 U/mouse in 50 μl of saline solution (0.9%). Control animals received double oropharyngeal instillation of 50 μl of saline solution.
Compound 19 was orally administered twice daily, starting on day 7 after the first oropharyngeal administration of bleomycin at the two doses of 400 and 600 mg/kg/day, 10 ml/kg, dissolved in 0.5% Tween 80, 0.5% Methylcellulose in H2O and treatment lasted for two weeks.
A group of animals was treated with Nintedanib esylate salt, at the dose of 60 mg/kg/day, 10 ml/kg, once daily, to compare the efficacy of the test compounds with an FDA approved drug for the treatment of IPF patients. Control mice were given vehicle-only over the same time intervals. Weight of all animals has been assessed twice a week starting from day 0 until day 21.
On days 21, mice were anesthetized by intraperitoneal injection of thiopental (200 mg/kg/10 ml; pentothal sodium, MSD Animal Health Srl). Blood was withdrawn by cardiac puncture and collected in heparine tubes. Plasma was obtained after centrifugation of blood at 10,000 g for 10 min. Lungs were lavage with saline solution through the heart, formalin fixed and paraffin embedded, and sections were stained with Masson's Trichrome to evaluate the grade and severity of fibrosis and collagen deposition.
Masson's Trichrome stained slides were also scanned with NanoZoomer S60 (Hamamatsu Photonics K.K., Shizuoka, Japan) and acquired into the Visiopharm Integrator System (VIS; version 2017.2.4.3387) for a quantification of pulmonary fibrosis by automated analysis with the support of a VIS Analysis Protocol Package (APP). The present APP has been designed to identify and then quantify the fibrotic tissue, detecting accumulation of altered connective tissue, excess of collagen deposition and cellular density.
To quantify lung protein content and the levels of specific proteins as markers of fibrosis and collagen deposition, lungs from subgroups of animals were weighted, homogenized in Phosphate buffer solution (PBS) and proteins of interest were quantified by immunometric or colorimetric assays. Hydroxyproline content was determined using the Hydroxyproline Colorimetric Assay Kit (Sigma MAK008, USA) according to the manufacturer's protocol. WISP-1, CollagenI, pro-CollagenI and Elastin were determined by Elisa kits. Protein quantification was performed using DC Protein Assay (Bio-Rad Laboratories, Italy). Plasma serine levels were measured using the DL-Serine Assay Kit (Abcam, Cambridge, MA).

[7] = system: bleomycin-induced pulmonary fibrosis; test: Bleomycin-induced pulmonary fibrosis in male mice (Example 6); format: in vivo, Male C57BL6/J mice; details: Nintedanib esylate 50 mg/Kg bid
Procedure: The effect of Compound 19a was evaluated in a murine model (C57BL/6J mouse strain) in which fibrosis was induced by a double oropharyngeal (OA) instillation of bleomycin. The Compound 19a was administered under therapeutic regimen for 14 days, starting the treatments at day 7 from the first instillation of Bleomycin OA up to the day 21, considered the endpoint for this model.
All mice were maintained under pathogen-free conditions and had free access to food and water.
Lung injury was induced by double OA instillation of bleomycin hydrochloride (BLM, BAXTER, Deerfield, IL, USA) at day 0 and day 4 at the dose of 0.03 U/mouse in […] of saline solution (NaCl 0.9%). Control animals received double OA instillation of […] of saline solution.
The Compound 19a was orally administered twice daily at the three doses of 3, 30 and 100 mg/Kg 10 mL/Kg, using as vehicle for dissolution the 0.5% Tween 80, 0.5% Methylcellulose in H2O.
On day 21, the respiratory system mechanics were measured using the FlexiVent System (SCIREQ Inc., Montreal Qc, Canada) (Vanoirbeek et al., 2010).
Briefly, mice were anesthetized by intraperitoneal injection of ketamine (Anesketin®, Dechra Inc., Handelsweg, NL) and xylazine (Xilagesic®, Calier Inc., Barcelona, ES) solution (100 mg/Kg and 10 mg/Kg, respectively). Once anesthesia was achieved, to analyze forced vital capacity (FVC), anesthetized mice were tracheotomized using an 18-gauge metal cannula, connected via an endotracheal cannula to the FlexiVent and ventilated at a respiratory rate of 150 breaths/min and tidal volume of 10 mL/Kg against a positive end-expiratory pressure of 3 cm H2O to achieve a mean lung volume close to that during spontaneous breathing. To prevent spontaneous breathing mice also received pancuronium bromide at 1 mg/Kg intraperitoneally. FlexiVent software version 8.1 was used to perform the perturbations.
Immediately after the in-life evaluation, plasma and bronchoalveolar lavage fluid (BALF) samples were collected.
First, blood was collected by cardiac puncture, and plasma was obtained after centrifugation of blood at 2000×g and 4° C. for 10 minutes.
Subsequently, the lungs were gently rinsed three times using a tracheal cannula with 0.6 mL of clear BAL solution. The obtained BALF was centrifuged at 1000×g and 4° C. for 10 minutes. The cell-free supernatant was used for biomarkers quantitative determination.
The following biomarkers were determined in BALF and plasma samples by commercially available ELISA kits: Collagen I (evaluated in BALF), an index of collagen accumulation; matrix metallopeptidase 7 (MMP-7, evaluated in BALF), indicator of aberrant fibrogenesis and ECM remodeling and surfactant protein D (SP-D, evaluated in PLASMA), marker of alveolar epithelial cell damage and dysfunction.
Lastly, the entire lungs were resected, fixed with formalin and embedded in paraffin. Sections were stained with Masson's trichrome to assess the grade and severity of fibrosis and collagen deposition.

Cn1c(C(=O)NC2(c3ccc(C(C(=O)O)C4CC4)cc3)CCOC2)cc2c(Cl)c(Cl)ccc21 (racemic) [Compound 15, (±)-2-Cyclopropyl-2-(4-(3-(4,5-dichloro-1-methyl-1H-indole-2-carbox-amido)tetrahydrofuran-3-yl)phenyl)acetic acid]
IC50 ([1]; NHLF, 72 h incubation): 2000 nM

Cn1c(C(=O)NC2(c3ccc(C(C(=O)O)C4CCCC4)cc3)CCOC2)cc2c(Cl)c(Cl)ccc21 (racemic) [Compound 16, (±)-2-cyclopentyl-2-{4-[3-(4,5-dichloro-1-methyl-1H-indole-2-amido)oxolan-3-yl]phenyl}acetic acid]
IC50 ([1]; NHLF, 72 h incubation): 501 nM

COc1cc2c(cc(C(=O)NC3(c4ccc(C(C(=O)O)C(C)C)cc4)CCOC3)n2C)c(Cl)c1Cl (racemic) [Compound 20, (±)-2-{4-[3-(4,5-dichloro-6-methoxy-1-methyl-1H-indole-2-amido)oxolan-3-yl]phenyl}-3-methylbutanoic acid]
IC50 ([1]; NHLF, 72 h incubation): 1260 nM

CCC(C(=O)O)c1ccc(C2(NC(=O)c3cc4c(Cl)c(Cl)ccc4n3C)CCOC2)cc1 (racemic) [Compound 72, (±)-2-{4-[3-(4,5-dichloro-1-methyl-1H-indole-2-amido)oxolan-3-yl]phenyl}butanoic acid]
IC50 ([1]; NHLF, 72 h incubation): 1260 nM

Cc1cc(C)nc(NC(=S)N2CCN(Cc3ccc(C(F)(F)F)cc3)CC2)c1 [NCT-503]
main brain/plasma ratio [2]: 2.4
attenuation of lung fibrosis [3]: preliminary efficacy in attenuation of lung fibrosis
TGF-b induced a-sma (% inh. 50 uM) [4]: 93%
fibrosis severity (FIG. 20B) ([5]; 100 mg/kg/day): not significant trend in reducing fibrosis severity
Ashcroft score analysis (FIG. 20A) ([5]; 100 mg/kg/day, compared to vehicle-treated mice): did not result in diminished Bleomycin-induced lung fibrosis
body weight ([5]; 200 mg/kg/day): did not show a significant worsening of the body weight
tolerability ([5]; 600 mg/kg/day (bid)): did not tolerate
survival ([5]; 600 mg/kg/day then 300 mg/kg/day once daily): 40%
weight loss compared to Day 0 ([5]; 600 mg/kg/day, 4 days of treatment): ~ 20%
lung/body weight [5]: do not induce reduction of lung/body weight
levels of pro-CollagenI and WISP-1 ([5]; lung homogenates): not affected
circulating serine levels (de novo serine synthesis) ([5]; plasma): did not induce inhibition of de novo serine synthesis
aSMA pIC50 ([1]; NHLF, 72 h incubation): >5.0
expression of aSMA (in words) ([1]; after 72 hours of incubation): partially reduces the expression of aSMA

COC(=O)c1ccc2c(c1)NC(=O)/C2=C(\Nc1ccc(N(C)C(=O)CN2CCN(C)CC2)cc1)c1ccccc1 [Nintedanib, reference compound]
reduction of lung/body weight ([6]; Compound 19 highest dose (600 mg/kg/day), Nintedanib esylate 60 mg/kg/day, not significant): −21%
body weight during 2-weeks of treatment ([6]; compared to BLM/Vehicle treated group): did not lose additional weight
Ashcroft score (FIG. 11A) ([6]; day 21): reduced
reduction of Collagen I in BALF ([7]; Compound 19a 100 mg/Kg bid): 56%
reduction of MMP-7 in BALF ([7]; Compound 19a 100 mg/Kg bid): 86%
reduction of SP-D levels in plasma ([7]; Compound 19a 100 mg/Kg bid): 87%
improvement of FVC decline ([7]; Compound 19a 100 mg/kg bid, vs BLM/vehicle): similarly to Nintedanib
lung/body weight [5]: do not induce reduction of lung/body weight

— patent US20260207551A1, “PHOSPHOGLICERATE DEHYDROGENASE INHIBITORS FOR THE TREATMENT OF FIBROSIS” (CHIESI FARMACEUTICI S.P.A., priority 2022, published 2026)
